In patent publication US20080262049A1, “Therapeutic Agent for Hematopoietic Tumor” (KYOWA HAKKO KOGYO CO., LTD., priority 2005, published 2008):

Assays:
[1] = system: human acute lymphoblastic leukemia RS4;11 cells; experiment: Cell growth inhibition test against hematopoietic tumor cell lines (XTT), RS4;11; type: cell-based; conditions: 72 hours culture with compound, read-out: growth inhibitory activity, GI50 value
Excerpt: (§1) As hematopoietic tumor cell lines, human acute lymphoblastic leukemia RS4;11 cells (ATCC No. CRL-1873), human chronic myeloid leukemia K-562 cells (ATCC No. CCL-243), and human multiple myeloma NCI-H929 cells (ATCC No. CRL-9068) were used. For the culture of the cells, RPMI 1640 Medium (Invitrogen, catalog No. 11875-093) containing 10% fetal bovine serum (Invitrogen, catalog No. 10099-141), 10 mmol/L 4-(2-hydroxyethyl)-1-piperazinethanesulfonic acid (HEPES) buffer (ICN Biomedicals, catalog No. 1688449), 1 mmol/L sodium pyruvate (Invitrogen, catalog No. 11360-070), 4.5 g/L glucose (Sigma-Aldrich, catalog No. G8769), 100 units/mL penicillin (Invitrogen, catalog No. 15140-122) and 100 μg/mL streptomycin (Invitrogen, catalog No. 15140-122) was used. The cells were cultured at 37° C. in a 5% carbon dioxide atmosphere.
(§2) RS4;11 cells (20000 cells/well), K-562 cells (1000 cells/well), or NCI-H929 cells (15000 cells/well) were seeded in each well of 96-well plates (Nunc, catalog No. 167008), and cultured overnight. Test compounds diluted stepwise were added, and the cells were further cultured for 72 hours (final volume: 100 μL/well). Fifty μL XTT labeling mixture of Cell Proliferation Kit II (XTT) (Roche Diagnostics, catalog No. 1465015) was added to each well, and the plates were incubated at 37° C. After 4 hours, absorbance at 490 nm (reference wavelength: 655 nm) was measured with a plate reader (Molecular Device, SpectraMax 340PC^384). Growth ratios of the cells in the wells treated with the test compound was calculated based on the growth ratio of the cells in the control well treated with solvent (dimethyl sulfoxide (DMSO)) for 72 hours, which was defined as 100%.

[2] = system: human multiple myeloma NCI-H929 cells; experiment: Cell growth inhibition test against hematopoietic tumor cell lines (XTT), NCI-H929; type: cell-based; conditions: 72 hours culture with compound, read-out: growth inhibitory activity, GI50 value
Excerpt: as §1, §2

[3] = system: human non-Hodgkin's lymphoma SR cells; experiment: Cell growth inhibition test on non-Hodgkin's lymphoma cells (XTT), SR; type: cell-based; conditions: same manner as Test Example 1, read-out: growth inhibitory activity, GI50 value
Experimental: as §2
(§3) As cancer cell lines, human acute myeloid leukemia MV-4-11 cells (ATCC No. CRL-9591) and human non-Hodgkin's lymphoma SR cells (ATCC No. CRL-2262) were used. The cells were cultured at 37° C. in a 5% carbon dioxide atmosphere by using the mediums mentioned below, respectively.
(§4) In the same manner as that of Test Example 1, the cells were seeded (8000 to 16000 cells/well, respectively) in each well of 96-well plates (Nunc, catalog No. 167008), and growth ratios of the cells treated with test compounds were calculated. Measurement of absorbance was performed at 3 to 4 hours after the addition of the XTT labeling mixture.

[4] = target: T1, recombinant human Eg5 motor domain protein (Homo sapiens, UniProt P52732); experiment: Eg5 enzyme inhibition test (ATPase activity); type: biochemical; conditions: for inhibition of the ATPase activity of Eg5 (in words): 30° C., 30 minutes, absorbance at 360 nm; for Eg5 inhibitory activity compared with the corresponding racemic mixture (in words): versus Compounds 3, 4, 6, 7, 20, 14, 9, 8, the respectively corresponding racemic mixtures
T1 construct: A plasmid expressing the motor domain of human Eg5 was constructed; made in house; host or cells: Escherichia coli BL21 (DE3)
T1 sequence (P52732 18-359 limits assumed): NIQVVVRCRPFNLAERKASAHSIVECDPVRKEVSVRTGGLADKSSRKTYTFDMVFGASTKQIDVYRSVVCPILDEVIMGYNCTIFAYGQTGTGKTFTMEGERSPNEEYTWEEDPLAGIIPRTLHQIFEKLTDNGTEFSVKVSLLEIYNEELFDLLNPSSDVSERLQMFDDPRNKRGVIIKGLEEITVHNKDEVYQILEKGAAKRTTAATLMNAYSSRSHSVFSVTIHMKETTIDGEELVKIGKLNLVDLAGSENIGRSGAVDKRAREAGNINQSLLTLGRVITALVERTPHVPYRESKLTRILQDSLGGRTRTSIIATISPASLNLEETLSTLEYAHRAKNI
Experimental: A recombinant human Eg5 motor domain protein was prepared by referring to the literature [Biochemistry, Vol. 35, p. […] A plasmid expressing the motor domain of human Eg5 was constructed, and transformed into Eseherichia coli BL21 (DE3). The transformant was cultured at 25° C., and when the OD600 reached 0.74, isopropyl-β-D-thiogalactoside was added at a final concentration of 0.5 mmol/L. The transformant was further cultured for 4 hours, and then the culture medium was centrifuged to collect the cells. The cells were suspended in a buffer and ultrasonicated, and then the sonicated solution was centrifuged to recover the supernatant. The supernatant was purified by cation exchange column chromatography to obtain a partially purified sample. Furthermore, the partially purified sample was purified by gel filtration column chromatography to obtain a finally purified sample.
Measurement of the ATPase activity of Eg5 was carried out by referring to the literatures [EMBO Journal, Vol. 13, p. […] Solution A was dispensed into each well of a 96-well plate as 45 μL portions. Solution B was used to serially dilute a test compound. The diluted test compound solutions in a volume of 30 μL were mixed with Solution A added beforehand in each well of the 96-well plate to start the enzymatic reaction. The enzymatic reaction was performed at 30° C. for 30 minutes. […] The relative activity was calculated to calculate IC50 value.

[5] = system: human acute myeloid leukemia MV-4-11 cells; experiment: Cell growth inhibition test on acute myeloid leukemia cells (XTT), MV-4-11; type: cell-based; conditions: MV4-11, same manner as Test Example 1, read-out: growth inhibitory activity, GI50 value
Experimental: as §2, §3, §4

[6] = system: human chronic myeloid leukemia K-562 cells; experiment: Cell growth inhibition test against hematopoietic tumor cell lines (XTT), K-562; type: cell-based; conditions: K562, 72 hours culture with compound, read-out: growth inhibitory activity, GI50 value
Excerpt: as §1, §2

## CCNCCS(=O)(=O)NCC1(c2ccccc2)SC(NC(=O)C(C)(C)C)=NN1C(=O)C(C)(C)C (single isomer, unassigned; (-)) [Compound l, (−)-N-[4-(2,2-Dimethylpropionyl)-5-(2-ethylaminoethanesulfonylaminomethyl)-5-phenyl-4,5-dihydro-1,3,4-thiadiazol-2-yl]-2,2-dimethylpropanamide]
[1]
  GI50: < 10 µM
[2]
  GI50: < 10 µM
[3]
  GI50: < 10 µM
[4]
  inhibition of the ATPase activity of Eg5 (in words): inhibited the ATPase activity of Eg5 in a concentration-dependent manner
  Eg5 inhibitory activity compared with the corresponding racemic mixture (in words): stronger inhibitory activities
[5]
  GI50: < 10 µM
[6]
  GI50: < 10 µM

## CC(C)(C)C(=O)NC1=NN(C(=O)C(C)(C)C)C(CN)(c2ccccc2)S1 (stereo not drawn) [Compound j, N-[5-Aminomethyl-4-(2,2-dimethylpropionyl)-5-phenyl-4,5-dihydro-1,3,4-thiadiazol-2-yl]-2,2-dimethylpropanamide]
[1]
  GI50: < 10 µM
[2]
  GI50: < 10 µM
[6]
  GI50: < 10 µM

## CC(C)C(=O)N1N=C(NC(=O)C(C)(C)C)SC1(CCNS(C)(=O)=O)c1ccccc1 (single isomer, unassigned; (-)) [Compound d, (−)-N-[4-Isobutyryl-5-(2-methanesulfonylaminoethyl)-5-phenyl-4,5-dihydro-1,3,4-thiadiazol-2-yl]-2,2-dimethylpropanamide]
[1]
  GI50: < 10 µM
[2]
  GI50: < 10 µM
[3]
  GI50: < 10 µM
[4]
  inhibition of the ATPase activity of Eg5 (in words): inhibited the ATPase activity of Eg5 in a concentration-dependent manner
  Eg5 inhibitory activity compared with the corresponding racemic mixture (in words): stronger inhibitory activities
[5]
  GI50: < 10 µM
[6]
  GI50: < 10 µM

## CC(=O)N1N=C(N2CCCCC2=O)SC1(CCNS(C)(=O)=O)c1ccccc1 (racemic) [Compound 20, N-{2-[3-Acetyl-5-(2-oxopiperidino)-2-phenyl-2,3-dihydro-1,3,4-thiadiazol-2-yl]ethyl}methanesulfonamide]
[4]
  inhibition of the ATPase activity of Eg5 (in words): inhibited the ATPase activity of Eg5 in a concentration-dependent manner

## CC(C)(C)C(=O)NC1=NN(C(=O)C(C)(C)C)C(CCNS(C)(=O)=O)(c2ccccc2)S1 (single isomer, unassigned; (-)) [Compound a, (−)-N-[4-(2,2-Dimethylpropionyl)-5-(2-methanesulfonylaminoethyl)-5-phenyl-4,5-dihydro-1,3,4-thiadiazol-2-yl]-2,2-dimethylpropanamide]
[1]
  GI50: < 10 µM
[2]
  GI50: < 10 µM
[3]
  GI50: < 10 µM
[4]
  inhibition of the ATPase activity of Eg5 (in words): inhibited the ATPase activity of Eg5 in a concentration-dependent manner
  Eg5 inhibitory activity compared with the corresponding racemic mixture (in words): stronger inhibitory activities
[5]
  GI50: < 10 µM
[6]
  GI50: < 10 µM

## CCC(=O)N1N=C(NC(=O)C(C)(C)C)SC1(CCNS(C)(=O)=O)c1ccccc1 (single isomer, unassigned; (-)) [Compound b, (−)-N-[5-(2-Methanesulfonylaminoethyl)-5-phenyl-4-propionyl-4,5-dihydro-1,3,4-thiadiazol-2-yl]-2,2-dimethylpropanamide]
[1]
  GI50: < 10 µM
[2]
  GI50: < 10 µM
[3]
  GI50: < 10 µM
[4]
  inhibition of the ATPase activity of Eg5 (in words): inhibited the ATPase activity of Eg5 in a concentration-dependent manner
  Eg5 inhibitory activity compared with the corresponding racemic mixture (in words): stronger inhibitory activities
[5]
  GI50: < 10 µM
[6]
  GI50: < 10 µM

## CCNCCS(=O)(=O)NCCC1(c2ccccc2)SC(NC(=O)C(C)(C)C)=NN1C(=O)C(C)(C)C (racemic) [Compound 14, N-{4-(2,2-Dimethylpropionyl)-5-[2-(2-ethylaminoethanesulfonylamino)-ethyl]-5-phenyl-4,5-dihydro-1,3,4-thiadiazol-2-yl}-2,2-dimethylpropanamide]
[4]
  inhibition of the ATPase activity of Eg5 (in words): inhibited the ATPase activity of Eg5 in a concentration-dependent manner
